Data from US10954269B2, “Anti-inflammatory tripeptides” (Dr. August Wolff Gmbh & Co. KG Arzneimittel, priority 2013, dated 2021).

How the values were obtained:
primary human T-cells = assay: Cytokine secretion on protein level in activated primary human T-cells (13-plex FACS / Luminex, supernatant); type: cell-based; conditions: human T cells; PMA/Ionomycin; Luminex; all tested concentrations
In short: (§1)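 Primary T-cells from peripheral blood of healthy volunteers, or HaCaT cells, were activated with PMA/Ionomycin or IFN-γ for 48 h and treated with tripeptides. Supernatants were collected 48 h and 72 h after stimulation and cytokines (IL-1, IL-2, IL-6, IL-12p70, IL-17, IFN-γ, TNF-α) were measured by 13-plex FACS.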

[1] = tested on: human keratinocyte cell line (HaCaT); assay: Cytokine secretion on protein level in activated human keratinocyte cell line HaCaT (13-plex FACS / Luminex, supernatant); type: cell-based; conditions: HaCaT; PMA/Ionomycin; Luminex; all tested concentrations
In short: as §1

primary murine T-cells = assay: Cytokine secretion on protein level in activated primary murine T-cells (13-plex FACS / Luminex, supernatant); type: cell-based, C57BL/6 mice; conditions: murine T cells; PMA/Ionomycin; Luminex; all tested concentrations
In short: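 T-cells from secondary lymphatic organs of naïve C57BL/6 mice, stimulated with PMA/Ionomycin or IFN-γ; supernatant cytokines measured by 13-plex FACS 48 h and 72 h after stimulation. In another run, PMA/Ionomycin-stimulated cells received compounds at 10^−7, 10^−9 and 10^−11 M, with IFN-γ, IL-17 and IL-10 measured by Luminex.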

primary human T cells = assay: Gene expression of pro-inflammatory cytokines (RT-qPCR) in primary human T cells; type: cell-based; conditions: PMA/Ionomycin, 10^−7 M, 10^−9 M and 10^−11 M
From the text: (§2) Cells were activated with PMA/Ionomycin and treated with PBS, α-MSH, K(D)PT and Examples 3, 8 and 9, respectively, at a concentration of 10^−9 M. Values are normalized to β-actin and are shown relative to the gene expression in PBS-stimulated cells.
(§3) Primary T-cells were isolated from peripheral blood from healthy volunteers and from secondary lymphatic organs from naïve C57BL/6 mice, respectively. The cells were stimulated with phorbol-12-myristate-13-acetate (PMA)/Ionomycin and interferon-gamma (IFN-γ), respectively, for 48 h to activate the cells. The activated cells release pro-inflammatory cytokines. In parallel a human (HaCaT) keratinocyte cell line was activated with PMA/Ionomycin and IFN-γ, respectively, too. […] At the same time release of anti-inflammatory IL-10 was inhibited. Two days after addition of PMA/Ionomycin and IFN-γ, respectively, the induction of IL-1 secretion was determined in the supernatant for proving that the cells are activated. […] The anti-inflammatory properties of the tripeptides were determined 48 h and 72 h following stimulation. A 13-plex-system based FACS analysis was used for showing the reduced secretion of pro-inflammatory cytokines in the supernatant. Data for IL-1, IL-2, IL-6, IL-12p70 IL-17, IFN-γ and TNF-α are considered to be most relevant. Thus, analysis of the anti-inflammatory properties of the tripeptides is preferably based on the results obtained for these analytes. […] Using this method the gene expression of pro-inflammatory markers like IL-6, IL-17, IFN-γ and TNF-α was determined.
(§4) In a third experiment murine and human T cells and HaCaT cells were stimulated with PMA/Ionomycin and treated with Examples 14, 15, 16 and 17 at 10^−7 M, 10^−9 M and 10^−11 M. Cytokine concentrations (IFN-γ, IL-17 and IL-10 for T cells and IFN-γ for HaCat) were assessed in the supernatants using the Luminex technology. Expression of genes coding for Il-1β, IL-6 and TNF-α was determined. […] Moreover, concentrations of pro-inflammatory cytokines IFN-γ and IL-17 was reduced in the supernatants whereas the concentration of anti-inflammatory cytokine IL-10 was increased.

[2] = tested on: human keratinocytes (HaCaT); assay: Gene expression of pro-inflammatory cytokines (RT-qPCR) in human keratinocytes (HaCaT); type: cell-based; conditions: HaCaT cells; PMA/Ionomycin; 10^−7 M, 10^−9 M and 10^−11 M
From the text: as §2, §3, §4

primary murine T cells = assay: Gene expression of pro-inflammatory cytokines (RT-qPCR) in primary murine T cells; type: cell-based, C57BL/6 mice; conditions: PMA/Ionomycin, 10^−7 M, 10^−9 M and 10^−11 M
From the text: as §2, §3, §4

Balb/c mice = assay: Imiquimod-induced psoriasis in mice; type: in vivo; conditions: i.v.
Procedure: Psoriasis in Balb/c mice is induced by daily application of topical Imiquimod for 8 days. Animal are treated with the test items (topical or systemically). On day 9 the skin phenotype is characterized using a clinical score system (0=normal mouse skin; 1=mild reddening; 2=erythema; 3=erythema, swelling; 4=erythema, swelling, scaling; 5=erythema, swelling, scaling, (bloody) lesions). Skin is analyzed histologically. Lymph nodes are analyzed by flow cytometry and RT-qPCR. mRNA expression in lesional skin is analyzed by RT-qPCR. Cytokine concentrations in the serum are assessed using the Luminex technology.

N^α-methyl-(D)-Phe-(L)-Pro-Aib-OH [Example 14]
concentration of anti-inflammatory cytokine IL-10 in the supernatants (primary human T-cells): increased | concentrations of pro-inflammatory cytokines IFN-γ and IL-17 in the supernatants (primary human T-cells): reduced | concentration of pro-inflammatory cytokine IFN-γ in the supernatants [1]: reduced | concentration of anti-inflammatory cytokine IL-10 in the supernatants (primary murine T-cells): increased | concentrations of pro-inflammatory cytokines IFN-γ and IL-17 in the supernatants (primary murine T-cells): reduced | expression of pro-inflammatory cytokines IL-1β, IL-6 and TNF-α on mRNA level (primary human T cells): reduced expression | expression of pro-inflammatory cytokines IL-1β, IL-6 and TNF-α on mRNA level [2]: reduced expression | expression of pro-inflammatory cytokines IL-1β, IL-6 and TNF-α on mRNA level (primary murine T cells): reduced expression | concentrations of TNF-α and IL-17 in the serum (Balb/c mice): reduced | epidermal thickness (Balb/c mice): reduced | mRNA expression of IFN-γ and IL-36 in lesional skin (Balb/c mice; compared to vehicle control): reduced | clinical score (Balb/c mice; day 9): reduced
